# Source: PubChem BioAssay AID272 (DTP/NCI, 2004)
# Results filed as inconclusive are left out.
# Test system: Lewis lung carcinoma i.m., BDF1 mice, T/C %
# Assay: NCI In Vivo Anticancer Drug Screen. Data for tumor model Lewis Lung Carcinoma (intramuscular) in B6D2F1 (BDF1) mice
# Summary of the method: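 Tumour-bearing mice were dosed with compound, and either their survival or their tumour size was measured. Results were expressed relative to vehicle-treated controls as T/C.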
# [1] = endpoint: mean tumor weight, dose: 2.0 mg/kg/injection, schedule: Q01DX011 (ip), vehicle: saline, higher = larger tumour
# [2] = endpoint: median survival time, dose: 2.0 mg/kg/injection, schedule: Q01DX011 (ip), vehicle: saline, higher = longer survival
smiles,measurement,setting,value
CC1=C2C(=C[C@@](C)(CO)[C@@H]2O)C(=O)[C@](C)(O)C12CC2,T/C,"endpoint: mean tumor weight, dose: 0.1 mg/kg/injection, schedule: Q01DX011 (ip), vehicle: other, higher = larger tumour",89 % of control
same,T/C,"endpoint: mean tumor weight, dose: 0.2 mg/kg/injection, schedule: Q01DX011 (ip), vehicle: other, higher = larger tumour",65 % of control
same,T/C,"endpoint: mean tumor weight, dose: 0.4 mg/kg/injection, schedule: Q01DX011 (ip), vehicle: other, higher = larger tumour",58 % of control
O=[As]O,T/C,[1],64 % of control
same,T/C,[2],110 % of control
CC(=O)Nc1cc(F)c([N+](=O)[O-])cc1[N+](=O)[O-],T/C,"endpoint: median survival time, dose: 1.25 mg/kg/injection, schedule: Q01DX011 (ip), vehicle: saline with Tween-80, higher = longer survival",108 % of control
same,T/C,"endpoint: median survival time, dose: 2.5 mg/kg/injection, schedule: Q01DX011 (ip), vehicle: saline with Tween-80, higher = longer survival",104 % of control
same,T/C,"endpoint: median survival time, dose: 5.0 mg/kg/injection, schedule: Q01DX011 (ip), vehicle: saline with Tween-80, higher = longer survival",95 % of control
same,T/C,"endpoint: median survival time, dose: 10.0 mg/kg/injection, schedule: Q01DX011 (ip), vehicle: saline with Tween-80, higher = longer survival",113 % of control
COC1=C(N)C(=O)c2nc(-c3nc(C(=O)O)c(C)c(-c4ccc(OC)c(OC)c4O)c3N)ccc2C1=O,T/C,"endpoint: median survival time, dose: 0.02 mg/kg/injection, schedule: Q01DX011 (ip), vehicle: other, higher = longer survival",105 % of control
same,T/C,"endpoint: median survival time, dose: 0.02 mg/kg/injection, schedule: Q01DX011 (ip), vehicle: saline, higher = longer survival",92 % of control
same,T/C,"endpoint: median survival time, dose: 0.03 mg/kg/injection, schedule: Q01DX009 (ip), vehicle: saline, higher = longer survival",86 % of control
same,T/C,"endpoint: median survival time, dose: 0.03 mg/kg/injection, schedule: Q01DX011 (ip), vehicle: saline, higher = longer survival",96 % of control
same,T/C,"endpoint: median survival time, dose: 0.05 mg/kg/injection, schedule: Q01DX009 (ip), vehicle: saline, higher = longer survival",90 % of control
same,T/C,"endpoint: median survival time, dose: 0.05 mg/kg/injection, schedule: Q01DX011 (ip), vehicle: other, higher = longer survival",90 % of control
same,T/C,"endpoint: median survival time, dose: 0.06 mg/kg/injection, schedule: Q01DX011 (ip), vehicle: saline, higher = longer survival",94 % of control
same,T/C,"endpoint: median survival time, dose: 0.1 mg/kg/injection, schedule: Q01DX011 (ip), vehicle: other, higher = longer survival",100 % of control
same,T/C,"endpoint: median tumor weight (est.), dose: 0.02 mg/kg/injection, schedule: Q01DX011 (ip), vehicle: saline, higher = larger tumour",72 % of control
same,T/C,"endpoint: median tumor weight (est.), dose: 0.03 mg/kg/injection, schedule: Q01DX011 (ip), vehicle: saline, higher = larger tumour",81 % of control
same,T/C,"endpoint: median tumor weight (est.), dose: 0.06 mg/kg/injection, schedule: Q01DX011 (ip), vehicle: saline, higher = larger tumour",77 % of control
same,T/C,"endpoint: median tumor weight (est.), dose: 0.12 mg/kg/injection, schedule: Q01DX011 (ip), vehicle: saline, higher = larger tumour",55 % of control
O=C(C[n+]1cc(Br)cc2ccccc21)c1ccc(O)c(O)c1,T/C,"endpoint: mean tumor weight (est.), dose: 28.75 mg/kg/injection, schedule: Q01DX011 (ip), vehicle: saline, higher = larger tumour",90 % of control
same,T/C,"endpoint: mean tumor weight (est.), dose: 57.5 mg/kg/injection, schedule: Q01DX011 (ip), vehicle: saline, higher = larger tumour",95 % of control
same,T/C,"endpoint: mean tumor weight (est.), dose: 115.0 mg/kg/injection, schedule: Q01DX011 (ip), vehicle: saline, higher = larger tumour",63 % of control
same,T/C,"endpoint: mean tumor weight (est.), dose: 230.0 mg/kg/injection, schedule: Q01DX011 (ip), vehicle: saline, higher = larger tumour",52 % of control
CC(=O)OC1C(=O)C(O)C(C)OC1O[C@@H]1C[C@@]2(C)[C@@H]3CC=C4[C@@H](C[C@H](O)C(=O)C4(C)C)[C@]3(C)C(=O)C[C@]2(C)[C@H]1[C@@](C)(O)C(=O)/C=C/C(C)(C)O (stereo partly drawn),T/C,"endpoint: mean tumor weight, dose: 0.5 mg/kg/injection, schedule: Q01DX011 (ip), vehicle: saline, higher = larger tumour",41 % of control
same,T/C,"endpoint: mean tumor weight, dose: 1.0 mg/kg/injection, schedule: Q01DX011 (ip), vehicle: saline, higher = larger tumour",32 % of control
same,T/C,[1],41 % of control
same,T/C,"endpoint: median survival time, dose: 0.5 mg/kg/injection, schedule: Q01DX011 (ip), vehicle: saline, higher = longer survival",113 % of control
same,T/C,"endpoint: median survival time, dose: 1.0 mg/kg/injection, schedule: Q01DX011 (ip), vehicle: saline, higher = longer survival",89 % of control
same,T/C,[2],91 % of control
O=NN(CCCl)C(=O)NC1CCCCC1,T/C,"endpoint: mean tumor weight, dose: 23.0 mg/kg/injection, schedule: Q01DX001 (sc), vehicle: saline, higher = larger tumour",61 % of control
same,T/C,"endpoint: mean tumor weight, dose: 39.0 mg/kg/injection, schedule: Q01DX001 (sc), vehicle: saline, higher = larger tumour",40 % of control
same,T/C,"endpoint: mean tumor weight, dose: 65.0 mg/kg/injection, schedule: Q01DX001 (sc), vehicle: saline, higher = larger tumour",30 % of control
same,T/C,"endpoint: mean tumor weight, dose: 108.0 mg/kg/injection, schedule: Q01DX001 (sc), vehicle: saline, higher = larger tumour",30 % of control
same,T/C,"endpoint: median survival time, dose: 4.0 mg/kg/injection, schedule: Q01DX011 (ip), vehicle: saline + alcohol, higher = longer survival",92 % of control
same,T/C,"endpoint: median survival time, dose: 4.0 mg/kg/injection, schedule: Q01DX011 (ip), vehicle: saline with Tween-80, higher = longer survival",105 % of control
same,T/C,"endpoint: median survival time, dose: 8.0 mg/kg/injection, schedule: Q01DX011 (ip), vehicle: saline + alcohol, higher = longer survival",92 % of control
same,T/C,"endpoint: median survival time, dose: 14.0 mg/kg/injection, schedule: Q01DX001 (ip), vehicle: saline, higher = longer survival",108 % of control
same,T/C,"endpoint: median survival time, dose: 16.0 mg/kg/injection, schedule: Q01DX012 (ip), vehicle: saline + alcohol, higher = longer survival",87 % of control
same,T/C,"endpoint: median survival time, dose: 23.0 mg/kg/injection, schedule: Q01DX001 (ip), vehicle: saline, higher = longer survival",121 % of control
same,T/C,"endpoint: median survival time, dose: 23.0 mg/kg/injection, schedule: Q07DX003 (ip), vehicle: saline, higher = longer survival",87 % of control
same,T/C,"endpoint: median survival time, dose: 39.0 mg/kg/injection, schedule: Q01DX001 (sc), vehicle: saline, higher = longer survival",185 % of control
same,T/C,"endpoint: median survival time, dose: 39.0 mg/kg/injection, schedule: Q07DX003 (ip), vehicle: saline, higher = longer survival",120 % of control
same,T/C,"endpoint: median survival time, dose: 65.0 mg/kg/injection, schedule: Q01DX001 (ip), vehicle: saline, higher = longer survival",34 % of control
same,T/C,"endpoint: median survival time, dose: 65.0 mg/kg/injection, schedule: Q01DX001 (sc), vehicle: saline, higher = longer survival",191 % of control
same,T/C,"endpoint: median survival time, dose: 108.0 mg/kg/injection, schedule: Q01DX001 (ip), vehicle: saline, higher = longer survival",25 % of control
same,T/C,"endpoint: median survival time, dose: 108.0 mg/kg/injection, schedule: Q01DX001 (sc), vehicle: saline, higher = longer survival",166 % of control
